The values below come from patent US11780821B2, “Inhibitors of fibroblast activation protein” (Praxis Biotech LLC, priority 2017, dated 2023).

The term IC50 denotes the concentration needed to halve the response being measured.

Where a name gives a salt, the structure may show the parent alone. Read-outs that look alike come from different tables or passages of the source.

Holding throughout (type): biochemical
Test [1] has as its target T1, recombinant human FAPα (rhFAPα) (Homo sapiens, UniProt Q12884).
T1 construct: purchased R&S system (so in the source)
T1 sequence (Q12884 1-760): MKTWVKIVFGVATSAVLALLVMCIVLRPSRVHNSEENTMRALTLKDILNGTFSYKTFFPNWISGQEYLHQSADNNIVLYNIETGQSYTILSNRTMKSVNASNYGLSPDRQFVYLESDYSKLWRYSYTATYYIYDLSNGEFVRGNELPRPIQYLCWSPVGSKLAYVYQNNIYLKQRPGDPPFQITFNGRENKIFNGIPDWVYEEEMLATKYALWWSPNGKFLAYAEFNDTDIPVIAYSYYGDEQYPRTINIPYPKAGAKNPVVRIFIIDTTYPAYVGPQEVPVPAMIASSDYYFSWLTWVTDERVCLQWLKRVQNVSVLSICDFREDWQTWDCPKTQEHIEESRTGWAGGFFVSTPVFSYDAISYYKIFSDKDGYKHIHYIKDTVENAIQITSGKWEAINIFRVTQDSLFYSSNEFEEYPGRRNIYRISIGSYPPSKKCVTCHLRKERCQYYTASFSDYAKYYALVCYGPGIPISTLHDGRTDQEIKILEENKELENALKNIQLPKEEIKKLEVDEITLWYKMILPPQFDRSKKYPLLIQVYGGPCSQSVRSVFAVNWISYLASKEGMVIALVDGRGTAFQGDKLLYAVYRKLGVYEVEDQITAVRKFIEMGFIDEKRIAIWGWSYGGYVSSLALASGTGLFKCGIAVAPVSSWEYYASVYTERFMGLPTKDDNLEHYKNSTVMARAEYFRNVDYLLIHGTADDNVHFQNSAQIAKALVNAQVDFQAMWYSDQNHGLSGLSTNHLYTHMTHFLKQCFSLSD
The test is described as follows: FAPα enzymatic exopeptidase (dipeptidase) activity assay. Conditions: for inhibition at 1 µM: 1 μM test compound, Z-Gly-Pro-AMC substrate, read-out: rhFAPα (% exo inh @ 1 μM); for IC50: exopeptidase, read-out: rhFAPα (exo IC50).

Test [2] addresses T2, recombinant human DPPIV (rhDPPIV) (Homo sapiens, UniProt P27487).
T2 construct: purchased R&S system (so in the source)
Briefly: DPPIV enzymatic activity assay. Conditions: H-Gly-Pro-pNA substrate.

Test [3] concerns the target T3, recombinant human PREP (rhPREP) (Homo sapiens, UniProt P48147).
T3 sequence (P48147 1-710): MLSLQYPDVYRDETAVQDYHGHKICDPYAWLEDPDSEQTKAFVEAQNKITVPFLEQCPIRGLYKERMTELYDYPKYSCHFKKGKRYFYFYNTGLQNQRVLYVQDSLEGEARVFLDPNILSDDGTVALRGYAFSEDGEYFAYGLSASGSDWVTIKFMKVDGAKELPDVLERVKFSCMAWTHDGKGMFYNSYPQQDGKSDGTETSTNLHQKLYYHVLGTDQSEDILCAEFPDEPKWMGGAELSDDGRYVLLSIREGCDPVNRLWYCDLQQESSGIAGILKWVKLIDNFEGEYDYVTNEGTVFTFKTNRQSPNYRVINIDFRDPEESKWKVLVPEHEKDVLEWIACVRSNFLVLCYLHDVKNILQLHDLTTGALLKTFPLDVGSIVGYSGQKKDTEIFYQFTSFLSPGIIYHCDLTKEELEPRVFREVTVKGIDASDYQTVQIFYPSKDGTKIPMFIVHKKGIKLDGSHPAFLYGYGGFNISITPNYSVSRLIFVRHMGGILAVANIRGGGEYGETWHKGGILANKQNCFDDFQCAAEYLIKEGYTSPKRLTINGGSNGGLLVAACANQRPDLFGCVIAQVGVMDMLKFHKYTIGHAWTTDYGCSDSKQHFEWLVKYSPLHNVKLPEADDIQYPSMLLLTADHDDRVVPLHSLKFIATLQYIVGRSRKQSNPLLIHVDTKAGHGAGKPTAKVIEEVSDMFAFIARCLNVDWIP
The test is described as follows: PREP enzymatic activity assay. The note with it: Z-Gly-Pro-AMC substrate. Here is the method:
(§1) 7-Amino-4-Methylcoumarin (AMC) release was detected by measuring fluorescence at Ex/Em 380/460 nm using a Multifunction Microplate Reader (Synergy 4, Biotek). All measurements were carried out in triplicate.

Test [4] addresses T4, recombinant human DPP9 (rhDPP9) (Homo sapiens, UniProt Q86TI2).
T4 construct: purchased R&S system (so in the source)
The test is described as follows: DPP9 enzymatic activity assay. The note with it: H-Gly-Pro-AMC substrate. Here is the method:
as §1

T4 sequence (Q86TI2 whole entry): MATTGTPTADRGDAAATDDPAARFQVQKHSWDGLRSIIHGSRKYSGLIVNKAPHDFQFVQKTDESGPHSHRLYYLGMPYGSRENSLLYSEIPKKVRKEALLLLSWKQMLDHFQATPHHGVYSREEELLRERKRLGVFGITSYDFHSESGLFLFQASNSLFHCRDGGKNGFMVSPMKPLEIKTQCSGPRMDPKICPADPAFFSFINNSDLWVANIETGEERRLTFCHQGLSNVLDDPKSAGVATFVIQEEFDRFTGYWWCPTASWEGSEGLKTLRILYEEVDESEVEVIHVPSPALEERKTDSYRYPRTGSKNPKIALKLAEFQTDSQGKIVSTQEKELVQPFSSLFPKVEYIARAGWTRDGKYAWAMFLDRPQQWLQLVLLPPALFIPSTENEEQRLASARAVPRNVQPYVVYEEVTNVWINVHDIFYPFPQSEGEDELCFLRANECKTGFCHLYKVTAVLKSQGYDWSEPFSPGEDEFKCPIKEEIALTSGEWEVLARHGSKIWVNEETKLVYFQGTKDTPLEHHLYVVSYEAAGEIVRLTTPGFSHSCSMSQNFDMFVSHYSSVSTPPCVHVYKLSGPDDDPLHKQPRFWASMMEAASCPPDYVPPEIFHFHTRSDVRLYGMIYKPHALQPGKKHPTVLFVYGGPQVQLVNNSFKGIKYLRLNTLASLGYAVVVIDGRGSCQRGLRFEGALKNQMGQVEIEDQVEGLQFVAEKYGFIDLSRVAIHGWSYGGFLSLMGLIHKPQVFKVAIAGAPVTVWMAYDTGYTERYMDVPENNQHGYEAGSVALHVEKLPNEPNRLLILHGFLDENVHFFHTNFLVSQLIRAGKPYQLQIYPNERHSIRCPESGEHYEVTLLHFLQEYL
T2 sequence (P27487 whole entry): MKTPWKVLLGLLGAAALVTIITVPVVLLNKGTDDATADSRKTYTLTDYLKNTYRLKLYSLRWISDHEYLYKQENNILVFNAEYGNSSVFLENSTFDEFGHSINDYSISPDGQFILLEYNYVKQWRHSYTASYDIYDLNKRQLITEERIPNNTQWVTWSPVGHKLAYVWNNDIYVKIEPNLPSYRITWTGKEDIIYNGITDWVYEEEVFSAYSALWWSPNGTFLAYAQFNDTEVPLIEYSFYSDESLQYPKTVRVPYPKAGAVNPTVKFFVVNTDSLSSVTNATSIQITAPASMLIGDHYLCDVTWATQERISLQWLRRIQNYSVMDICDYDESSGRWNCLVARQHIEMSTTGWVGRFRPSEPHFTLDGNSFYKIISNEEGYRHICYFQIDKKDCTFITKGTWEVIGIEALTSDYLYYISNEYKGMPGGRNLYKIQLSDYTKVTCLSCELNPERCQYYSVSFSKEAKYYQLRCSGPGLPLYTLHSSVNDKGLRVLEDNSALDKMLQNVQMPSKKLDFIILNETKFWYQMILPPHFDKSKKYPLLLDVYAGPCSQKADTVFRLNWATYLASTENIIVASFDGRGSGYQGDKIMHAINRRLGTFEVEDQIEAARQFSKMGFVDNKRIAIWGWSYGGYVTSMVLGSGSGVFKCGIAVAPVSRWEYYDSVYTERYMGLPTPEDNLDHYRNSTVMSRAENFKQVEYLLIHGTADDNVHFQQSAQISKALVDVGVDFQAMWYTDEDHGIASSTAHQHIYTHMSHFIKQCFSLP

Regarding `Cc1ccccc1-c1cnccc1C(=O)NCC(=O)N1CC(F)(F)C[C@H]1C#N` [Compound 64, (S)—N-(2-(2-cyano-4,4-difluoropyrrolidin-1-yl)-2-oxoethyl)-3-(o-tolyl)isonicotinamide], the inhibition at 1 µM in test [1] is greater than 50%. Further, the IC50 in test [1] (Table 2, Z-Gly-Pro-AMC) was less than 1 µM; in test [1] (Table 3) it was less than 1 µM; in test [2], greater than 10 µM; in test [3] it was greater than 10 µM; in test [4], greater than 10 µM.

For `N#C[C@@H]1CC(F)(F)CN1C(=O)CNC(=O)c1ccncc1Oc1ccccc1` [Compound 97, (S)—N-(2-(2-cyano-4,4-difluoropyrrolidin-1-yl)-2-oxoethyl)-3-phenoxyisonicotinamide], the inhibition at 1 µM in test [1] was greater than 50%. Also, the IC50 was less than 1 µM in test [1] (Table 2, Z-Gly-Pro-AMC); less than 1 µM in test [1] (Table 3); greater than 10 µM in test [2]; greater than 10 µM in test [3]; greater than 10 µM in test [4].

With `N#C[C@@H]1CC(F)(F)CN1C(=O)CNC(=O)c1ccncc1Nc1ccc(F)cc1` [Compound 114, (S)—N-(2-(2-cyano-4,4-difluoropyrrolidin-1-yl)-2-oxoethyl)-3-((4-fluorophenyl)amino)isonicotinamide 2,2,2-trifluoroacetate], the inhibition at 1 µM in test [1] is greater than 50%. Further, the IC50 in test [1] (Table 2, Z-Gly-Pro-AMC) was less than 1 µM; in test [1] (Table 3), less than 1 µM; in test [2], greater than 10 µM; in test [3], greater than 10 µM; in test [4], greater than 10 µM.

Turning to `N#C[C@@H]1CC(F)(F)CN1C(=O)CNC(=O)c1ccncc1-c1ccc(N)nc1` [Compound 107, (S)-6′-amino-N-(2-(2-cyano-4,4-difluoropyrrolidin-1-yl)-2-oxoethyl)-[3,3′-bipyridine]-4-carboxamide formate], the inhibition at 1 µM in test [1] was greater than 50%. Further, the 50% inhibitory concentration (IC50) in test [1] (Table 2, Z-Gly-Pro-AMC) is less than 1 µM; in test [1] (Table 3) it was less than 1 µM; in test [2] it was 1 to 10 µM; in test [3], greater than 10 µM; in test [4], 1 to 10 µM.

On to `N#C[C@@H]1CC(F)(F)CN1C(=O)CNC(=O)c1ccc(=O)n2c1CCCCC2` [Compound 21, (S)—N-(2-(2-cyano-4,4-difluoropyrrolidin-1-yl)-2-oxoethyl)-4-oxo-4,6,7,8,9,10-hexahydropyrido[1,2-a]azepine-1-carboxamide], for which the inhibition at 1 µM in test [1] is greater than 50%. In addition, the IC50 in test [1] (Table 2, Z-Gly-Pro-AMC) is less than 1 µM; in test [1] (Table 3), less than 1 µM; in test [2] it was greater than 10 µM; in test [3], 1 to 10 µM; in test [4], greater than 10 µM.

As for `N#C[C@@H]1CC(F)(F)CN1C(=O)CNC(=O)c1ccncc1N1CCC(N)CC1` [Compound 120, (S)-3-(4-aminopiperidin-1-yl)-N-(2-(2-cyano-4,4-difluoropyrrolidin-1-yl)-2-oxoethyl)isonicotinamide 2,2,2-trifluoroacetate], the inhibition at 1 µM in test [1] was greater than 50%. Further, the concentration for half-maximal inhibition (IC50) in test [1] (Table 2, Z-Gly-Pro-AMC) is less than 1 µM; in test [1] (Table 3), less than 1 µM; in test [2], 1 to 10 µM; in test [3], greater than 10 µM; in test [4], greater than 10 µM.

Consider `CCOc1cnccc1C(=O)NCC(=O)N1CC(F)(F)C[C@H]1C#N` [Compound 113, (S)—N-(2-(2-cyano-4,4-difluoropyrrolidin-1-yl)-2-oxoethyl)-3-ethoxyisonicotinamide], for which the inhibition at 1 µM in test [1] was greater than 50%. In addition, the IC50 in test [1] (Table 2, Z-Gly-Pro-AMC) is less than 1 µM; in test [1] (Table 3), less than 1 µM; in test [2], greater than 10 µM; in test [3], greater than 10 µM; in test [4] it was greater than 10 µM.

In the case of `N#C[C@@H]1CC(F)(F)CN1C(=O)CNC(=O)c1ccncc1NC1CCNCC1` [Compound 118, (S)—N-(2-(2-cyano-4,4-difluoropyrrolidin-1-yl)-2-oxoethyl)-3-(piperidin-4-ylamino)isonicotinamide], the inhibition at 1 µM in test [1] was greater than 50%. Also, the IC50 was less than 1 µM in test [1] (Table 2, Z-Gly-Pro-AMC); less than 1 µM in test [1] (Table 3); greater than 10 µM in test [2]; greater than 10 µM in test [3]; greater than 10 µM in test [4].

With `Cn1ccc2c(-c3cnccc3C(=O)NCC(=O)N3CC(F)(F)C[C@H]3C#N)cccc21` [Compound 66, (S)—N-(2-(2-cyano-4,4-difluoropyrrolidin-1-yl)-2-oxoethyl)-3-(1-methyl-1H-indol-4-yl)isonicotinamide], in test [1], the inhibition at 1 µM is greater than 50%. Also, the 50% inhibitory concentration (IC50) was less than 1 µM in test [1] (Table 2, Z-Gly-Pro-AMC); less than 1 µM in test [1] (Table 3); greater than 10 µM in test [2]; greater than 10 µM in test [3]; greater than 10 µM in test [4].

For `N#C[C@@H]1CC(F)(F)CN1C(=O)CNC(=O)c1ccncc1-c1ccnc2ccccc12` [Compound 51, (S)—N-(2-(2-cyano-4,4-difluoropyrrolidin-1-yl)-2-oxoethyl)-3-(quinolin-4-yl)isonicotinamide], in test [1], the inhibition at 1 µM was greater than 50%. Moreover, the IC50 in test [1] (Table 2, Z-Gly-Pro-AMC) is less than 1 µM; in test [1] (Table 3) it was less than 1 µM; in test [2], 1 to 10 µM; in test [3] it was greater than 10 µM; in test [4], greater than 10 µM.

For `N#C[C@@H]1CC(F)(F)CN1C(=O)CNC(=O)c1ccncc1N1CCCCC1` [Compound 42], in test [1], the inhibition at 1 µM was greater than 50%. For the same compound, the IC50 in test [1] (Table 2, Z-Gly-Pro-AMC) is less than 1 µM; in test [1] (Table 3), less than 1 µM; in test [2], greater than 10 µM; in test [3], greater than 10 µM; in test [4], greater than 10 µM.

In the case of `N#C[C@@H]1CC(F)(F)CN1C(=O)CNC(=O)c1ccncc1C1=CCCCC1` [Compound 43, N-(2-((S)-2-cyano-4,4-difluoropyrrolidin-1-yl)-2-oxoethyl)-3-(cyclohex-1-en-1-yl)isonicotinamide], in test [1], the inhibition at 1 µM was greater than 50%. Further, the 50% inhibitory concentration (IC50) in test [1] (Table 2, Z-Gly-Pro-AMC) was less than 1 µM; in test [1] (Table 3), less than 1 µM; in test [2], greater than 10 µM; in test [3], greater than 10 µM; in test [4], 1 to 10 µM.

In the case of `N#C[C@@H]1CC(F)(F)CN1C(=O)CNC(=O)c1ccncc1Nc1cccnc1` [Compound 117, (S)—N-(2-(2-cyano-4,4-difluoropyrrolidin-1-yl)-2-oxoethyl)-3-(pyridin-3-ylamino)isonicotinamide], the inhibition at 1 µM in test [1] is greater than 50%. In addition, the half-maximal inhibitory concentration (IC50) in test [1] (Table 2, Z-Gly-Pro-AMC) was less than 1 µM; in test [1] (Table 3), less than 1 µM; in test [2], greater than 10 µM; in test [3] it was 1 to 10 µM; in test [4] it was greater than 10 µM.

On to `CC(C)(C)c1cccc(-c2cnccc2C(=O)NCC(=O)N2CC(F)(F)C[C@H]2C#N)c1` [Compound 112, (S)-3-(3-(tert-butyl)phenyl)-N-(2-(2-cyano-4,4-difluoropyrrolidin-1-yl)-2-oxoethyl)isonicotinamide], for which, in test [1], the inhibition at 1 µM is greater than 50%. The IC50 was less than 1 µM in test [1] (Table 2, Z-Gly-Pro-AMC); less than 1 µM in test [1] (Table 3); greater than 10 µM in test [2]; greater than 10 µM in test [3]; greater than 10 µM in test [4].

For `N#C[C@@H]1CC(F)(F)CN1C(=O)CNC(=O)c1ccncc1Nc1ccccc1` [Compound 102], in test [1], the inhibition at 1 µM is greater than 50%. Moreover, the 50% inhibitory concentration (IC50) in test [1] (Table 2, Z-Gly-Pro-AMC) was less than 1 µM; in test [1] (Table 3), less than 1 µM; in test [2], greater than 10 µM; in test [3] it was greater than 10 µM; in test [4], greater than 10 µM.
